Assay results as given in US20260216355A1, “ANTIBODY-DRUG CONJUGATE FROM N-OXYCYCLOALKYL SUBSTITUTED CAMPTOTHECIN DERIVATIVE” (priority 2022, published 2026).
pIC50: −log10 of the molar value.

Key:
[1] = system: breast cancer cells MDA-MB-231; assay: In vitro inhibitory activity of ADC against tumor cell growth (CCK-8), MDA-MB-231; type: cell-based, Human; conditions: MDA-MB-231 cells, 6 days incubation
Text: (§1) Method for in vitro inhibitory activity assay of ADC: Human esophageal cancer cells OE-33, lung cancer cells NCI-H1975, and breast cancer cells MDA-MB-231 used for activity assays were respectively cultured in RPMI1640 (Cellmax), RPMI1640 (Cellmax), and DMEM (Cellmax) media containing 10% fetal bovine serum (FBS, Cellmax) to the exponential growth phase. After trypsinization, the cells were centrifuged, and the supernatant was discarded. The cells were resuspended with media and diluted to 3×10^4 cells/mL, 0.5×10^4 cells/mL and 1.5×10^4 cells/mL respectively. Then, 100 μL of each cell suspension was added to a 96-well cell culture plate, and the plate was returned to an incubator at 37° C. with 5% CO2 for overnight culture. The next day, the ADC to be tested was diluted to 2000 nM, 400 nM, 80 nM, 16 nM, 3.2 nM, 0.64 nM, 0.128 nM, and 0.026 nM using culture medium. The diluted ADC was added to a 96-well cell culture plate at 100 μL per well, with 3 replicates set for each concentration. For the negative control without ADC and the blank control, 100 μL of culture medium was added to each well. After the sample addition was finished, the plate was returned to the incubator at 37° C. with 5% CO2 for further incubation for 6 days. Upon completion of incubation, the cell culture plate was removed, and the medium in the plate was aspirated using a pipette. 100 μL of medium containing 10% CCK-8 was added to each well, followed by incubation at 37° C. for 3 h. After incubation, the plate was removed, protected from light, placed in a microplate reader, and the absorbance was measured at a test wavelength of 450 nm with a reference wavelength of 630 nm. Based on the absorbance values, the IC50 (Table 1) was calculated using four-parameter regression in GraphPad. The corresponding ADC drug containing Dxd was used as a positive control drug, which has the following structure: […]

[2] = system: Human esophageal cancer cells OE-33; assay: In vitro inhibitory activity of ADC against tumor cell growth (CCK-8), OE-33; type: cell-based; conditions: OE-33 cells, 6 days incubation
Text: as §1

[3] = system: lung cancer cells NCI-H1975; assay: In vitro inhibitory activity of ADC against tumor cell growth (CCK-8), NCI-H1975; type: cell-based, Human; conditions: 6 days incubation
Text: as §1

Substance	pIC50 [1]	pIC50 [2]	pIC50 [3]
7-(N-(HS627-Ac-PEG2-Gly-Lys-PABC), N-((R)-tetrahydrofuran-3-yl)amino)ethyl-10,11-methylenedioxycamptothecin [ADC 13]	6.30 to 7.30	6.30 to 7.30	6.30 to 7.30
7-(N-(HS627-AcPEG2-Gly-Lys-PABC), N-(tetrahydropyran-4-yl)amino)ethyl-10,11-methylenedioxycamptothecin [ADC 5]	6.30 to 7.30	< 6.60	6.30 to 7.30
7-(N-(HS627-AcPEG4-Gly-Lys-PABC), N-(tetrahydropyran-4-yl)amino)ethyl-10,11-methylenedioxycamptothecin [ADC 7]	6.30 to 7.30	< 6.60	6.30 to 7.30
7-(N-(HS627-mPEG2-Gly-Lys-PABC), N-(tetrahydropyran-4-yl)amino)ethyl-10,11-methylenedioxycamptothecin [ADC 3]	7.30 to 8.30	7.30 to 8.30	7.30 to 8.30
7-(N-(HS627-mc-Val-Cit-PABC), N-(tetrahydropyran-4-yl)amino)ethyl-10,11-methylenedioxycamptothecin [ADC 1]	6.30 to 7.30	7.30 to 8.30	7.30 to 8.30
7-(N-(IP140B-Ac-PEG2-Gly-Lys-PABC), N-((R)-tetrahydrofuran-3-yl)amino)ethyl-10,11-methylenedioxycamptothecin [ADC 14]	7.30 to 8.30	7.30 to 8.30	7.30 to 8.30
7-(N-(IP140B-Ac-PEG2-Gly-Lys-PABC), N-((S)-tetrahydrofuran-3-yl)amino)ethyl-10,11-methylenedioxycamptothecin [ADC 16]	6.30 to 7.30	6.30 to 7.30	6.30 to 7.30
7-(N-(IP140B-AcPEG2-Gly-Lys-PABC), N-(tetrahydropyran-4-yl)amino)ethyl-10,11-methylenedioxycamptothecin [ADC 6]	6.30 to 7.30	7.30 to 8.30	7.30 to 8.30
7-(N-(IP140B-AcPEG4-Gly-Lys-PABC), N-(tetrahydropyran-4-yl)amino)ethyl-10,11-methylenedioxycamptothecin [ADC 8]	6.30 to 7.30	6.30 to 7.30	6.30 to 7.30
7-(N-(IP140B-Qx-PEG2-Gly-Lys-PABC), N-((R)-tetrahydrofuran-3-yl)amino)ethyl-10,11-methylenedioxycamptothecin [ADC 12]	7.30 to 8.30	7.30 to 8.30	> 8.30
7-(N-(IP140B-Qx-PEG2-Gly-Lys-PABC), N-(tetrahydropyran-4-yl)amino)ethyl-10,11-methylenedioxycamptothecin [ADC 10]	> 8.30	7.30 to 8.30	> 8.30
7-(N-(IP140B-mPEG2-Gly-Lys-PABC), N-(tetrahydropyran-4-yl)amino)ethyl-10,11-methylenedioxycamptothecin [ADC 4]	7.30 to 8.30	7.30 to 8.30	7.30 to 8.30
7-(N-(IP140B-mc-Val-Cit-PABC), N-(tetrahydropyran-4-yl)amino)ethyl-10,11-methylenedioxycamptothecin [ADC 2]	7.30 to 8.30	7.30 to 8.30	> 8.30
20-O-(IP140B-Ac-PEG4-daP-NHNHC)-7-(N-(tetrahydropyran-4-yl)amino)ethyl-10,11-methylenedioxycamptothecin [ADC 20]	> 8.30	> 8.30	> 8.30
20-O-(IP140B-AcPEG2-Gly-Val-Ala-Gly-NHNHC)-7-(N-(tetrahydropyran-4-yl)amino)ethyl-10,11-methylenedioxycamptothecin [ADC 18]	> 8.30	> 8.30	> 8.30
